Source: patent publication US20240343761A1, “APELINERGIC MACROCYCLES AND USES THEREOF” (priority 2021, published 2024)
Like-named read-outs stand apart in the source and are kept apart here. Numbered stars: 1 amine (or outer) side, 2 acyl side, 3 side chain; on linkers, the order of the positions; unused ones are H or OH. Bridge positions count the residues as written; N and C are the ends. Square brackets hold non-standard residues; d marks the D form. Ends that are not written are not given here. * marks the point of attachment. Tyr(OBn) = O-benzyl-tyrosine, O=C([C@H](Cc1ccc(OCc2ccccc2)cc1)N[*:1])[*:2]; pent‑4‑enoyl = des-amino allylglycine (Ø = desamino analog), C=CCCC(=O)*; Rx = Nα-allyl-arginine, C=CCN([C@@H](CCCNC(=N)N)C(=O)[*:2])[*:1]; d1Nal = N[C@H](Cc1cccc2ccccc12)C(=O)O; dcypTyr(OBn) = not defined here; AllylGly = C=CC[C@H](N)C(=O)O; pGlu = O=C1CC[C@@H](C(=O)O)N1; Nle = CCCC[C@H](N)C(=O)O; AIH = not defined here

How the values were obtained:
[1] = in vivo; details: for AUC: male Sprague-Dawley rats
Experimental: Male Sprague-Dawley rats of 8-10 weeks were used in this study. […] Animals were placed in a containment chamber prior to i.v. injection to facilitate blood sampling. […] Those samples were immediately stored on crushed ice before being centrifuged at 13000 rpm for 5 min at 4° C. to isolate plasma (upper layer). The resultant plasma was transferred to polypropylene tubes, and immediately frozen at −80° C.
A combination of a protein precipitation and a solid phase extraction step were used to extract the peptides. Plasma sample was defrosted on ice. After vortex agitation (60 s), 100 μL sample was withdraw and 300 μL cold acetonitrile was added to precipitate the plasma proteins. The sample was then vortex (60 s) and centrifuged at 4500 rpm at 4° C. during 10 min. The supernatant was then isolated and directly pass through an HLB prime for additional clean up. The filtrate was diluted 10 times in 0.1% formic acid/water and filtered through a 0.22 μm syringe filter before LC/MS/MS analysis.
Samples were analyzed on a Sciex Qtrap 6500+ equipped with a microflow liquid chromatography (Eksigient M3 microflow) and a UPLC HSS-T3 column (1 mm×100 mm, 1.8 μm, equipped with a 0.2 μm fritted pre-filter). The solvent flow rate was set to 50 μL/min, the column temperature was kept at 40° C. and the injection volume was 3 μL. The mobile phase was 0.1% formic acid/water (A) and 0.1% formic acid/acetonitrile (B). The elution gradient starts with 2% of eluent B, increasing to 95% in 8 min, maintaining at 95% for 2 min and then back to initial conditions in 2 min for a total run time of 13 min. […] Analysis used two daughter traces (transitions), among them, the most abundant was for quantification and the second most abundant for confirmation.

[2] = system: Sprague-Dawley rats; test: Echocardiography (cardiac performance) after s.c. injection; details: for effect on fractional shortening (FS) and cardiac output (CO): s.c. 0.2 μmol/kg, three hours after injection
[3] = target: T1, hAPJ receptor (Homo sapiens, UniProt P35414); test: BRET-based Gαi1 activation assay in HEK293 cells; assay type: cell-based; details: for Emax: HEK293, Table V, read-out: Gαi1 Emax
T1 construct: expressed in transfected cells; host or cells: HEK293, transient transfection with PEI
T1 sequence (P35414 1-380): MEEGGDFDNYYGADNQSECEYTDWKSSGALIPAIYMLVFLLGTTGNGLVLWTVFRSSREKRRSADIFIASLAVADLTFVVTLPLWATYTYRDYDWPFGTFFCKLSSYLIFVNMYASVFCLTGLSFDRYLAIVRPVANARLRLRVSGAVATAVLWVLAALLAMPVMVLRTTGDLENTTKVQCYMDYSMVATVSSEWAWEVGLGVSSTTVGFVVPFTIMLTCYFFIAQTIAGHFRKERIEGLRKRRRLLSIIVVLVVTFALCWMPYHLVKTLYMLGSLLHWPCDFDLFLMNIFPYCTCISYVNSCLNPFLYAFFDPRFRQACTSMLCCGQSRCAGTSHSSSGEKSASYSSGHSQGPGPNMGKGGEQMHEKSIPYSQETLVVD
In short: (§1)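 HEK293 cells in HBSS stimulated with analogs from 10^−5 to 10^−11 M, 5 min at 37 °C (Gαi1) or 30 min at room temperature (β-arrestin2).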

[4] = target: T1, hAPJ receptor; test: BRET-based β-arrestin2 recruitment assay in HEK293 cells; assay type: cell-based; details: for Emax: HEK293
In short: as §1

[5] = Rat plasma stability (half-life in vitro); assay type: in vitro ADME; details: rat plasma; for half-life at […]: male, Sprague-Dawley, rat, plasma
Experimental: Plasma was obtained from male Sprague-Dawley rats by collecting blood in heparin tube and centrifugating at 13,000 rpm to remove blood cells. The isolated plasma was stored at −80° C. and thawed right before the test. In 96-well plate, 6 μL of peptide solution at 1 mM was incubated with 27 μL of plasma at 37° C. in an oven equipped with orbital shaker. Tightly fitted caps were used to seal the wells to avoid water evaporation during incubation. […] A 96-well UPLC plate was put at the bottom to collect the samples. Both plates were centrifuged at 500 g for 10 min at 4° C. to accelerate the filtration. […] The quantity of remaining peptide was plotted into an exponential one-phase decay curve using GraphPad Prism 8 which allowed to calculate peptide half-life. The results were presented as mean±SEM of at least 3 independent experiments, each done in simplicate.
The percentage of remaining analogue was calculated by doing the ratio between AU of compound and AUC of internal standard. Half-lives were extrapolated from curves.

[6] = system: anesthetized male Sprague-Dawley rats; test: In vivo blood pressure measurement; design: species or system rat; details: i.v. bolus, doses 19.6 and 65 nmol/kg
Experimental: The animal experimental protocols were approved by the Animal Care Committee of Université de Sherbrooke and complied with policies and directives of the Canadian Council on Animal Care.
Male Sprague-Dawley rats (8-10 weeks of age) were anesthetized with ketamine/xylazine injection (87/13 mg/kg i.m.) and placed in supine position on a thermostatic pad. Their right carotid artery was catheterized with PE 50 (filled with heparinized saline), connected to a Micro-Med transducer (model TDX-300, Calabasas, USA) and Micro-Med blood pressure analyzer (model BPA-100c). […] This i.v. catheter was flushed with saline (0.2 mL) immediately after each injection.

[7] = target: human APJ (transfected HEK293 cells, Gαi1 BRET assay) (human) (UniProt P35414); test: cell-based or functional assay
[8] = target: T2, YFP-tagged human APJ receptor (human, UniProt P35414 1-380); test: competitive radioligand binding, HEK293-hAPJ membranes
T2 construct: whole, on cells; also called hAPJ; APJ WT; not shown: YFP tag
T2 sequence (looked up): T1 sequence (P35414 1-380)

[9] = target: T2, YFP-tagged human APJ receptor; test: as above; remark: listed apart in the source
[10] = target: T3, human APJ (transfected HEK293 cells, Gαi1 BRET assay) (human, UniProt P35414 1-380); test: cell-based or functional assay
T3 sequence (looked up): T1 sequence (P35414 1-380)

[11] = target: T2, YFP-tagged human APJ receptor; test: competitive radioligand binding, HEK293-hAPJ membranes; remark: listed apart in the source
[12] = target: T3, human APJ (transfected HEK293 cells, …); test: cell-based or functional assay; remark: listed apart in the source
[13] = male, Sprague-Dawley, rat, plasma, iv, 3 mg/kg

## CSCC[C@H](NC(=O)[C@@H]1CCCN1C(=O)CNC(=O)[C@H](CCCCN)NC(=O)[C@H](Cc1cnc[nH]1)NC(=O)[C@H](CO)NC(=O)[C@H](CC(C)C)NC(=O)[C@H](CCCNC(=N)N)NC(=O)[C@@H]1CCCN1C(=O)[C@H](CCCNC(=N)N)NC(=O)[C@@H]1CCC(=O)N1)C(=O)N1CCC[C@H]1C(=O)N[C@@H](Cc1ccccc1)C(=O)O [Compound 60, Pyr-R-P-R-L-S-H-K-G-P-M-P-F, reference compound]
[1]; i.v. 3 mg/kg
  completely disappeared after: 5 min
  AUC: 0.0002 ± 0.0001 min*(mg/mL)
[1]; [13]
  clearance: > 100 mL/min/kg
[2]
  effect on fractional shortening (FS) and cardiac output (CO): no observable effect

## CC(C)C[C@@H]1NC(=O)[C@H](CCCNC(=N)N)NC(=O)[C@@H](N)CC=CC[C@@H](C(=O)N[C@@H](CCCCN)C(=O)NCC(=O)N2CCC[C@H]2C(=O)N[C@H](Cc2ccc3ccccc3c2)C(=O)O)NC(=O)[C@H](CO)NC1=O [Compound 43, NH2-c[X-R-L-S-X]c-K-G-P-(D-2Nal)]
[3]
  agonist character on Gαi1: full agonists
  Emax: 105%
[4]
  agonist character on β-arrestin: partial agonists
[4]; Table V, read-out: ß-arr2 Emax
  Emax: 55%
[4]; read-out: β-arr2 Emax
  Emax: 55%
[5]; Table I, 37° C., up to 24 h, read-out: Half-life in vitro (converted)
  half-life at […]: > 24 h
[5]; Table V, read-out: Half-life t1/2
  half-life at […]: > 24 h
[1]; i.v. 3 mg/kg
  AUC: 8.80 ± 0.41 min*(mg/mL)
[1]; [13]
  level at 5 min: 36100 ng/mL
  level at 4 h: 8600 ng/mL
[6]
  effect on blood pressure: no effect
[2]
  effect on fractional shortening (FS) and cardiac output (CO): significant increase in both FS and CO
[2]; s.c. 2 μmol/kg, 6 h
  CO increase from baseline: 16%
  FS increase: 17%

## CCCC[C@H](NC(=O)[C@@H]1CCCN1C(=O)CNC(=O)[C@H](CCCCN)NC(=O)[C@@H]1Cc2cncn2CC=CC[C@H](NC(=O)[C@H](CCCNC(=N)N)NC(=O)[C@@H]2CCC(=O)N2)C(=O)N[C@@H](CCCNC(=N)N)C(=O)N[C@@H](CC(C)C)C(=O)N[C@@H](CO)C(=O)N1)C(=O)N1CCC[C@H]1C(=O)N[C@@H](Cc1ccccc1)C(=O)O [Compound 15, Pyr-R-c[X-R-L-S-Alh]c-K-G-P-Nle-P-F]
[3]
  Emax: 99%
[4]; Table V, read-out: ß-arr2 Emax
  Emax: 115%
[4]; read-out: β-arr2 Emax
  Emax: 115%
[6]
  ΔMABP (drop in blood pressure): −40 mmHg

## CCCC[C@H](NC(=O)[C@@H]1CCCN1C(=O)CNC(=O)[C@H](CCCCN)NC(=O)[C@@H]1CC=CC[C@H](N)C(=O)N[C@@H](CCCNC(=N)N)C(=O)N[C@@H](CC(C)C)C(=O)N[C@@H](CO)C(=O)N1)C(=O)N1CCC[C@H]1C(=O)N[C@@H](Cc1ccccc1)C(=O)O [Compound 20, NH2-c[X-R-L-S-X]c-K-G-P-Nle-P-F]
[3]
  Emax: 100%
[4]; Table V, read-out: ß-arr2 Emax
  Emax: 98%
[4]; read-out: β-arr2 Emax
  Emax: 98%
[6]
  ΔMABP (drop in blood pressure): −27 mmHg

## Ac-Ape17-Met15Nle (KT03-12) (peptide)
[7]
  EC50 Gαi1: 2.88 nM
[8]
  Ki: 0.15 nM

## CCCC[C@H](NC(=O)[C@@H]1CCCN1C(=O)CNC(=O)[C@H](CCCCN)NC(=O)[C@@H]1CC=CC[C@H](N)C(=O)N[C@@H](CCCNC(=N)N)C(=O)N[C@@H](CC(C)C)C(=O)N[C@@H](CO)C(=O)N1)C(=O)O [Compound 29, NH2-c[X-R-L-S-X]c-K-G-P-Nle]
[3]
  Emax: 99%
[4]; Table V, read-out: ß-arr2 Emax
  Emax: 69%
[4]; read-out: β-arr2 Emax
  Emax: 69%
[5]
  times less stable than 20: 3 times
  times less stable than full-length analog 13: 5 times
[6]
  ΔMABP (drop in blood pressure): −13 mmHg

## CC(C)C[C@@H]1NC(=O)[C@H](CCCNC(=N)N)NC(=O)[C@@H](N)CC=CC[C@@H](C(=O)N[C@@H](CCCCN)C(=O)NCC(=O)N2CCC[C@H]2C(=O)N[C@H](Cc2cccc3ccccc23)C(=O)O)NC(=O)[C@H](CO)NC1=O [Compound 42, NH2-c[X-R-L-S-X]c-K-G-P-(D-1Nal)]
[3]
  agonist character on Gαi1: full agonists
  Emax: 103%
[4]
  agonist character on β-arrestin: partial agonists
[4]; Table V, read-out: ß-arr2 Emax
  Emax: 70%
[4]; read-out: β-arr2 Emax
  Emax: 70%
[1]; 3 mg/kg
  plasma presence at 4 h: completely cleared from plasma
[1]; i.v. 3 mg/kg
  AUC: 1.33 ± 0.18 min*(mg/mL)
[6]
  ΔMABP (drop in blood pressure): −24 mmHg
[2]
  effect on fractional shortening (FS) and cardiac output (CO): significant increase only in FS

## [pGlu]RKRLSDKGP[Nle]PF (lactam 3-7) [Compound 17 (KT01-106)]
[9]
  Ki: 39 nM

B1: Compound 27 (KT01-111) (peptide)
peptide: [pent‑4‑enoyl]RLS[AIH]KGP[Nle]PF
modifications: staple 1-5; not fully specified; printed as Ø-c[X-R-L-S-AIH]-K-G-P-Nle-P-F; reading uncertain
[9]
  Ki: 380 nM

## Ac-KFRRQRPRLEHKKP[Nle]P[Tyr(OBn)] (lactam 10-13) [Compound 66 (KT03-02)]
[10]
  EC50 Gαi1: 21.7 nM
[11]
  Ki: 1.6 nM

B2: Compound 50 (KT01-181) (peptide)
peptide: RKPXY
modifications: NH2-R-c[K(N-butenyl)-P-X]-Tyr(Obn): K(N-butenyl) 2 and X (allylglycine) 4 close the macrocycle; Tyr(OBn) 5
[9]
  Ki: 7180 nM

B3: Compound 65 (KT02-99) (peptide)
peptide: Ac-KFRRQRPRLEHKKP[Nle]P[dcypTyr(OBn)]
modifications: lactam 10-13; reading uncertain; also: printed as Ac-K-F-R-R-Q-R-P-R-L-[E-H-K-K]-P-Nle-P-dcypTyrOBn
[10]
  EC50 Gαi1: 73 nM
[11]
  Ki: 4.16 nM

## Ac-ENTN[8‑aminooctanoic acid]RPRLKHKGP[Nle]PF (lactam 1-10) [Compound 46 (KT01-145)]
[9]
  Ki: 32 nM

## H-[AllylGly]RLS[AllylGly]KGP[d1Nal] (staple 1-5) [Compound 42 (KT04-43)]
[12]
  Gαi1 Emax (%): 103%
[8]
  Ki: 0.6 nM

## [Rx]RLS[AIH]KGP[Nle]PF (staple 1-5; reading uncertain) [Compound 26 (KT01-120)]
[9]
  Ki: 382 nM
